This assay has as its target Dual specificity protein phosphatase 6 (Rattus norvegicus) (UniProt Q64346). Description: reproducibility of MKP-3 inhibition curves – biochemical, rat DUSP6, reproducibility testing, probe assessment, dose response (AID 566). The following applies: recombinant MKP-3 phosphatase, fluorescence substrate.

Structures are written as SMILES. Active and inactive are the calls of the source. No rule for the calls is given here.

Dual specificity protein phosphatase 6 (Rattus norvegicus), sequence (Q64346 whole entry, looked up): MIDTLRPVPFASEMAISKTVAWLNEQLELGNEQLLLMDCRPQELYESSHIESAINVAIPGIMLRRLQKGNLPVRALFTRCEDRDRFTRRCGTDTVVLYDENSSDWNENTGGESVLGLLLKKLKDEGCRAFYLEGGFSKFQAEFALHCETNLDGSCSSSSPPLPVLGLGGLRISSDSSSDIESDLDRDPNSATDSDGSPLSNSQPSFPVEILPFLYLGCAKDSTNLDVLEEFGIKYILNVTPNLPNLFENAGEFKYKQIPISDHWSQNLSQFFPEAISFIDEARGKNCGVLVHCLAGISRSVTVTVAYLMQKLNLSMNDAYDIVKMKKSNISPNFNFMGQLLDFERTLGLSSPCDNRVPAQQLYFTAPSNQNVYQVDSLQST

Broadly, the IC50 is the point on the concentration scale where inhibition reaches its midpoint. As to `O=C1C(C2=C(O)c3ccccc3C2=O)=Nc2ccccc21`, the IC50 was > 50 µM (inactive).

The values are drawn from PubChem BioAssay AID566 (University of Pittsburgh Molecular Library Screening Center, 2006).
